Patent US8101572B2, “Methods for promoting wound healing and/or reducing scar formation” (Arizona Board of Regents, A Corporate Body Organized Under …, priority 2003, dated 2012)
Non-standard residues stand in square brackets, D forms with d. No end group written: not given here. pS = N[C@@H](COP(=O)(O)O)C(=O)O

How the values were obtained:
Swiss albino 3T3 cells [1] = assay: f-actin cytoskeletal distribution (Alexa 568 phalloidin, confocal microscopy); format: cell-based; details: 30 min, 10 μM LPA, 10 μM forskolin, 25 μM FITC-pHSP20, 25 μM FITC-aHSP20
Experimental: (§1) Unless otherwise stated, all reagents were purchased from Sigma, St. Louis, Mo. Swiss Albino 3T3 fibroblasts (ATCC, Manassas, Va.) were cultured in DMEM supplemented with 10% BCS, 4 mM L-glutamine and 50 μg/ml penicillin-streptomycin and maintained at 37° C., 5% CO2. Cells were seeded and cultured overnight. Culture media was replaced with DMEM containing 0.5% BCS 1 hour prior to experimentation. Cells were incubated with the peptide analogues or reagent (LPA or forskolin) diluted in DMEM containing 0.5% BCS, 30 minutes at 37° C. Cells were then fixed in 4% paraformnaldehyde, permeabilized in 0.25% Triton X-100, and blocked with 1% BSA solution for 1 hour. To determine f-actin cytoskeletal distribution, treated cells were incubated with Alexa 568 phalloidin (Molecular Probes, Eugene, Oreg.) in 1% BSA, 30 minutes. […] Slides were mounted and analyzed by confocal microscopy (Leica TCS SP2, Bannockburn, Ill.). […]
Swiss albino 3T3 cells were either untreated or treated with 10 μM LPA, 10 μM forskolin, 25 μM FITC-pHSP20, or 25 μM FITC-aHSP20 as described (4). Cells were fixed, stained for f-actin using Alexa 568 phalloidin, and visualized by projection images of confocal fluorescence microscopy. […]

[2] = test system: motor cortex of Sprague Dawley rats; assay: microwire neural electrode implant, histology for glial scarring (GFAP) and axons (MAP2); format: in vivo; details: rat motor cortex, four weeks after implant; peptide as subdural injection (0.1 cc, 100 μm p20) with dextran coated electrodes
From the text: Microwire arrays were implanted in the motor cortex of Sprague Dawley rats. Six male Sprague-Dawley rats (300-450 g) were implanted with 2×4 arrays of 50 μm tungsten wire. The electrodes were spaced 500 um apart for a total array size of approximately 1.5 mm×0.5 mm. The implant was centered +3 mm anterior and +2 mm lateral from bregmna. The craniotomy was opened slightly larger than the implant size and an injection (0.1 cc, 0.9% PBS or 100 μm p20) was made into the arachnoid space near the implant site using a 30 gauge needle. The mirowire array was held in a micromanipulator and lowered 2 mm from the surface of the dura. The craniotomy was covered with Gelfoam® and the implant and connector were cemented in place with dental acrylic. Three groups were implanted and evaluated histologically after four weeks. Group one was implanted with untreated electrodes. […] Texas Red labeled anti-Rabbit and Cy5 labeled antij-donkey secondary antibodies were used respectively for visualization.

3T3 cells [3] = assay: focal adhesion assay using interference reflection microscopy; format: cell-based; details: cultured 3T3 cells; 100 nM Hep I, 10 μM and 25 μM peptide; FIG. 2
Experimental: Results from the focal adhesion assay using interference reflective microscopy on 3T3 cells treated as described (4). Each condition was tested in triplicate, and an average of 250 cells per coverslip was counted. A cell was scored positive if it contained at least five focal adhesions. Hep I (peptide from thrombospondin 1) was used as a positive control. *P<0.05 compared to untreated cells.
as §1

3T3 cells [4] = assay: DNase 1 inhibition assay for monomer g-actin; format: cell-based; details: forskolin 10 μM, 30 min, pHSP20 25 μM
Experimental: 3T3 cells were cultured and treated as indicated on the graph (4). Monomer g-actin was biochemically quantitated using a DNase 1 inhibition assay. The level of g-actin in the cell extract that caused 50% inhibition of DNase 1 was estimated from a standard actin curve that was determined using known amounts of actin. *P<0.05 compared to untreated cells.
To confirm that the loss of stress fibers is associated with loss of filamentous (f-) actin and commensurate increases in globular (g-) actin, a DNase 1 inhibition assay was performed (5). 3T3 cells were cultured and treated as indicated (4). Monomer g-actin was biochemically quantitated using a DNase 1 inhibition assay. The level of g-actin in the cell extract that caused 50% inhibition of DNase 1 was estimated from a standard actin curve that was determined using known amounts of actin. […] Thus, transduction of pHSP20 led to similar changes in actin filament dynamics and cellular morphology, as did activation of the upstream adenylate cyclase activator forskolin.

Swiss albino 3T3 cells [5] = assay: focal adhesion protein localization (immunostaining for α-actinin, vinculin, paxillin); format: cell-based; details: 30 min, 10 μM forskolin, 25 μM pHSP20, 25 μM FITC-aHSP20
Experimental: Unless otherwise stated, all reagents were purchased from Sigma, St. Louis, Mo. Swiss Albino 3T3 fibroblasts (ATCC, Manassas, Va.) were cultured in DMEM supplemented with 10% BCS, 4 mM L-glutamine and 50 μg/ml penicillin-streptomycin and maintained at 37° C., 5% CO2. Cells were seeded and cultured overnight. Culture media was replaced with DMEM containing 0.5% BCS 1 hour prior to experimentation. Cells were incubated with the peptide analogues or reagent (LPA or forskolin) diluted in DMEM containing 0.5% BCS, 30 minutes at 37° C. Cells were then fixed in 4% paraformnaldehyde, permeabilized in 0.25% Triton X-100, and blocked with 1% BSA solution for 1 hour. To determine f-actin cytoskeletal distribution, treated cells were incubated with Alexa 568 phalloidin (Molecular Probes, Eugene, Oreg.) in 1% BSA, 30 minutes. To determine focal adhesion protein localization, treated cells were incubated with primary monoclonal antibodies for α-actinin (1:100, Upstate, Charlottesville, Va.), vinculin (1:100, Sigma) or paxillin (1:100, BD Bioscience-Transduction Labs, San Jose, Calif.) in 1% BSA solution for 2 hours, rinsed in PBS and incubated 60 min with Cy3-goat IgG secondary antibody (Jackson ImmunoResearch, West Grove, Pa.). Slides were mounted and analyzed by confocal microscopy (Leica TCS SP2, Bannockburn, Ill.). […]

Substance	cell morphology and stress fibers (f-actin) (Swiss albino 3T3 cells [1])	density of axons in the vicinity of the microwire electrodes [2]	glial scarring around electrodes [2]	focal adhesions (cells positive for focal adhesions) (3T3 cells [3])	g-actin (monomer) in cell extract (3T3 cells [4]; FIG. 1)	g-actin (monomer) in cell extract (3T3 cells [4]; FIG. 1, listed as PhosphoHSP20 peptide)	focal adhesion accumulations of α-actinin, vinculin, and paxillin (Swiss albino 3T3 cells [5])
YGRKKRRQRRRWLRRApSAPLPGL (YGRKKRRQRRRWLRRA[pS]APLPGL) [pHSP20, phosphopeptide analogue of HSP20 with HIV Tat protein transduction domain]	displayed stellate morphology and disrupted stress fibers	a higher density of axons was seen	essentially no scarring was observed	led to disruption of focal adhesions	led to increases in g-actin	disrupts the actin cytoskeleton	displayed a decrease in focal adhesion accumulations of α-actinin, vinculin, and paxillin
lysophosphatidic acid [reference compound]	displayed robust stress fibers	–	–	–	–	–	–
